pIC50: −log10 of the molar value. Entries after “also recorded” stand apart in the source; their conditions may differ.
Assays:
Type in all cases: cell-based
[1] = system: N-ras G12D-transfected HMC1.2 cells; test: Colony outgrowth after drug removal, N-ras G12D transfected cells; details: all concentrations, 5 days after drug removal
From the text: (§1) Drug treatments were removed and colony outgrowth of viable cells was monitored after 5 or 13 additional days.
(§2) Drug treatments were removed and colony outgrowth of viable cells was monitored after 5 or 10 additional days.

[2] = system: EV-transfected HMC1.2 mast cells; test: Colony outgrowth after drug removal, empty vector transfected cells; details: all concentrations, 5 days after drug removal
From the text: as §1, §2

[3] = system: HMC1.1 KIT V560G mast cell line; test: Cell proliferation, HMC1.1 KIT V560G mast cell line; details: 72 h, read-out: IC50, inhibition of cell proliferation
Method: (§3) Assays were conducted in 96 well plates with 10,000 cells seeded per well.

[4] = system: HMC1.2 mast cells (KIT D816V); test: Colony outgrowth in soft agar after drug removal; details: all concentrations, 10 days treatment, 5 days after drug removal
From the text: Drug treatments were removed and colony outgrowth of viable cells was monitored after 5 additional days.

[5] = system: HMC1.2 KIT V560G/D816V mast cell line; test: Cell proliferation, HMC1.2 KIT V560G/D816V mast cell line; details: 72 h, read-out: IC50, inhibition of cell proliferation
Method: as §3

Row | SMILES | colony outgrowth, single agent [1] | colony outgrowth, single agent [2] | pIC50 [3] | colony outgrowth, single agent [4] | pIC50 [5]
1 | CCn1c(=O)c(-c2cc(NC(=O)Nc3ccccc3)c(F)cc2Br)cc2cnc(NC)cc21 [Compound A, 1-[4-bromo-5-[1-ethyl-7-(methylamino)-2-oxo-1,2-dihydro-1,6-naphthyridin-3-yl]-2-fluorophenyl]-3-phenylurea] | colony outgrowth at all concentrations; also recorded: eradication was not observed | colony outgrowth at all concentrations; also recorded: eradication was not observed | – | – | –
2 | CCn1c(=O)c(-c2cc(NC(=O)Nc3ccccc3)c(F)cc2Br)cc2cnc(N)cc21 [Compound B, 1-(5-(7-amino-l-ethyl-2-oxo-1,2-dihydro-1,6-naphthyridin-3-yl)-4-bromo-2-fluorophenyl)-3-phenylurea] | – | – | 8.64 | colony outgrowth at all concentrations; also recorded: eradication was not observed | 7.21
3 | Cn1cnc2c(F)c(Nc3ccc(Br)cc3F)c(C(=O)NOCCO)cc21 [binimetinib] | – | – | – | colony outgrowth at all concentrations; also recorded: eradication was not observed | –
4 | O=C(c1ccc(F)c(F)c1Nc1ccc(I)cc1F)N1CC(O)([C@@H]2CCCCN2)C1 [cobimetinib, reference compound] | colony outgrowth at all concentrations; also recorded: eradication was not observed | colony outgrowth at all concentrations; also recorded: eradication was not observed | – | colony outgrowth at all concentrations | –

Source: patent US12102620B2, “Combination therapy for the treatment of mastocytosis” (Deciphera Pharmaceuticals, LLC, priority 2018, dated 2024)
